Assay [1] in a line: Trypanosoma cruzi growth suppression in host cells – NIH3T3 host cells, beta-gal luminescence, confirmation (AID 2044).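 Note: intracellular parasites grown in NIH/3T3 mouse fibroblasts as host cells; luminescent beta-galactosidase reporter signal from transgenic T. cruzi replicating inside host cells; inhibitors lower the luminescence signal.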 It is filed as functional, cell-based.
Assay [2] can be described thus: NIH3T3 cell viability loss – ATP luminescence, mouse fibroblasts, counter-screen, dose response (AID 2010).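 Note: cells exposed to compound for about 90 hours before reading.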 In kind it is functional, cell-based.
Assay [3] is described as follows: cells. It is filed as functional, cell-based.
The nature of assay [4]: viability of uninfected HEp-2 cells – cell-based, HTS, cytotoxicity control for RSV inhibitor project, dose response (AID 2410). It is filed as functional. Conditions: human respiratory syncytial virus.
Assay [5] can be described thus: cells. In kind it is functional, cell-based. The source holds these as a separate data set.
For assay [6], the target named is Glucose-6-phosphate 1-dehydrogenase (Homo sapiens, UniProt P11413). Put plainly: inhibition of Homo sapiens G6PD, dose series – biochemical, fluorescence, selectivity assay for P. falciparum G6PD inhibitor project, dose response (AID 504792). In kind it is functional.
Glucose-6-phosphate 1-dehydrogenase, sequence (P11413 whole entry): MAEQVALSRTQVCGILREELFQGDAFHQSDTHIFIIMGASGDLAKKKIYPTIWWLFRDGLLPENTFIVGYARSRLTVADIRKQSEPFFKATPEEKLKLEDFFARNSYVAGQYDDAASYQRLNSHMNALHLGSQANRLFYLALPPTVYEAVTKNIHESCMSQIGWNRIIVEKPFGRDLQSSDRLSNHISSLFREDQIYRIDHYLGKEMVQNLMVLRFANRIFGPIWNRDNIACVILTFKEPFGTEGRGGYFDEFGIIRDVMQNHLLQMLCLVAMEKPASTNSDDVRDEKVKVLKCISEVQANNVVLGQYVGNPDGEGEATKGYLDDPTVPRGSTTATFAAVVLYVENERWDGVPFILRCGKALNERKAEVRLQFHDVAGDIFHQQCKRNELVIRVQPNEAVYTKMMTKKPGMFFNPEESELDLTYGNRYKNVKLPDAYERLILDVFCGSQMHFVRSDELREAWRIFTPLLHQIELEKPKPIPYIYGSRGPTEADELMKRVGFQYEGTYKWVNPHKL
Assay [7] has as its system Streptococcus sp. 'group A'. Put plainly: Streptococcus pyogenes SK(-)GAS viability under kanamycin – luminescence, BacTiterGlo, confirmation, counter-screen for streptokinase expression inhibitor project, dose response (AID 1900). It is filed as functional, organism-based.
Assay [8] is described as follows: viability loss in HEK293 cells – cell-based, plate reader, cherry-picked samples, cytotoxicity control, dose response (AID 743446). In kind it is functional.
Assay [9] can be described thus: cells. In kind it is functional, cell-based. The source holds these as a separate data set.
Assay [10] can be described thus: A549 cell cytotoxicity, dose response, cytotoxicity control, plate reader, cherry-pick, antagonist series (AID 743412). In kind it is functional, cell-based.
The next assay concerns HEK293. The assay can be described thus: EBV LMP1 TES2 canonical NF-kB signalling blockers – cell-based, HEK293, luciferase, cherry-pick, dose response (AID 588343). It is filed as functional. The conditions noted are these: Homo sapiens.
A short description of assay [11]: blockade of melanocortin 4 receptor signaling – cell-based, plate reader, cherry pick, counter-screen for LGR2 antagonist project, dose response (AID 743444).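 Note: transfected HEK 293 cells stimulated with alpha-MSH peptide; potency of inhibitors of the alpha-MSH evoked signal.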 It is filed as functional.
Assay [12] is described as follows: toxicity toward HepG2 liver cells – cell-based, plate reader, cherry-pick, antagonist series, cytotoxicity control, dose response (AID 743416). It is filed as functional.
Another assay relates to Streptococcus. Put plainly: GAS UMAA2166 growth inhibition – luminescence, BacTiterGlo, counter-screen for streptokinase expression inhibitor project, dose response (AID 1915).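 Note: potency for reduction of bacterial viability or growth.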 It is filed as functional, organism-based.
Assay [13] has as its target T1, Nuclear receptor subfamily 0 group B member 1 (Homo sapiens, UniProt P51843).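 Note: HEK293T cells transfected with SF-1 and DAX-1 plus StAR promoter luciferase reporter.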
T1 sequence (P51843 whole entry): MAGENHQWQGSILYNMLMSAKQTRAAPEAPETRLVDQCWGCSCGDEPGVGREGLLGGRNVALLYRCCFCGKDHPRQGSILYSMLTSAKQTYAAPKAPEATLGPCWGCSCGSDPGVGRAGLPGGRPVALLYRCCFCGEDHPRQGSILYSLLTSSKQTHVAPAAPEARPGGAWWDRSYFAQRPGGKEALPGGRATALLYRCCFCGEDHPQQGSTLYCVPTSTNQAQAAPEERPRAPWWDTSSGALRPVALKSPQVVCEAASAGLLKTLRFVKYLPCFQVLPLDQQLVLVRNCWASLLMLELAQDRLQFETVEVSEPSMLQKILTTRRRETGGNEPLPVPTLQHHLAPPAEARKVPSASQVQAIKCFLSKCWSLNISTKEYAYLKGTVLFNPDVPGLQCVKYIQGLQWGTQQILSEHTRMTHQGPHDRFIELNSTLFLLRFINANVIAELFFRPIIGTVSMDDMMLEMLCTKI
It is filed as functional, cell-based.

Assay [14] addresses Latent membrane protein 1 (Human herpesvirus 4 (strain B95-8), UniProt P03230). The assay can be described thus: LMP1 TES1 pathway selectivity over dsRED control – imaging, HEK293T, dual-color eGFP/dsRED, cherry-picks, selectivity assay for LMP1 NF-kB inhibitor project, dose response (AID 588398). In kind it is functional, cell-based.
Assay [15] is described as follows: blockers of bursicon-stimulated LGR2 cAMP reporter – cell-based, HEK293, CRE-luciferase reporter, cherry pick, set 2, dose response (AID 743343).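 Note: transfected cells were stimulated with diluted bursicon conditioned medium after compound addition.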 It is filed as functional.
Assay [16] is described as follows: viability loss in HEK293T cells – cell-based, cherry-picks, cytotoxicity control for HIV Vif inhibitor project, dose response (AID 652208). In kind it is functional.
The target in assay [17] is G-protein coupled receptor 55 (Homo sapiens, UniProt Q9Y2T6). Put plainly: inhibition of LPI-stimulated GPR55 beta-arrestin translocation – imaging, U2OS, beta-arrestin-GFP, LPI agonist, primary screen (AID 2013).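 Note: antagonist potency measured as reduced agonist-driven arrestin aggregation.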 In kind it is functional.
G-protein coupled receptor 55, sequence (Q9Y2T6 whole entry, the tested form may be a part): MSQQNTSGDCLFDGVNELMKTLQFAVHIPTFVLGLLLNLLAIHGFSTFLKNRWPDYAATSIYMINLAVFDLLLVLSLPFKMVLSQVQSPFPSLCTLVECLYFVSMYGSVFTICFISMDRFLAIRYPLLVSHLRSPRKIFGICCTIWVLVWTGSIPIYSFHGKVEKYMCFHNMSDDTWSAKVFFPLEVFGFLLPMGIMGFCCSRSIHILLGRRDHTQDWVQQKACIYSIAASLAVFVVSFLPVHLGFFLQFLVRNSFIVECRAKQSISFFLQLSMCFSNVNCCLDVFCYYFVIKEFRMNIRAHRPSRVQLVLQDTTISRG
Assay [18] deals with T2, Sentrin-specific protease 1 (Homo sapiens, UniProt Q9P0U3). The assay can be described thus: Dose response confirmation of small molecule inhibitors of the catalytic domain of the SUMO protease, SENP1 in a FRET assay. In kind it is functional. Conditions: read-out: IC50_Mean.
T2 sequence (Q9P0U3 whole entry, the tested form may be a part): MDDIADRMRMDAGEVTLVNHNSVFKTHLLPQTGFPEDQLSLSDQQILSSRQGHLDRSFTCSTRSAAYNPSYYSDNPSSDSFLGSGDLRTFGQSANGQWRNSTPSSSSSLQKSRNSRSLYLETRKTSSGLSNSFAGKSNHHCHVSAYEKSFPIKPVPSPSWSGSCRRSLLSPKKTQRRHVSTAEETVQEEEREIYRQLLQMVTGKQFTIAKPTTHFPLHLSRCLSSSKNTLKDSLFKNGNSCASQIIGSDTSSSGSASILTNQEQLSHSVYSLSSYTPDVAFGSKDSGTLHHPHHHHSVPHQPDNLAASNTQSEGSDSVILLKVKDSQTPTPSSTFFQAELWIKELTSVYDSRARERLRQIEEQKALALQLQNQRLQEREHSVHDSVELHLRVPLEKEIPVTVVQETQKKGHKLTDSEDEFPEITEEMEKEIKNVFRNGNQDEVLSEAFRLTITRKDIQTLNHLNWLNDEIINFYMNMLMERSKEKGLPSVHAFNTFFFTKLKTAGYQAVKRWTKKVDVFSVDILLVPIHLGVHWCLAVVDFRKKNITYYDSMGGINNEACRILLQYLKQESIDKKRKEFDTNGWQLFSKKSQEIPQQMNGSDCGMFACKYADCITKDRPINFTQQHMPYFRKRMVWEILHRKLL
The target of assay [19] is T2, Sentrin-specific protease 1. The assay can be described thus: SENP1 catalytic domain blockers, concentration series – biochemical, kinetic FRET, dose response (AID 651697). It is filed as functional. The conditions noted are these: read-out: IC50_Mean.
Assay [20] has as its target T3, RNA-binding protein pos-1 (Caenorhabditis elegans, UniProt G5EF15).
T3 sequence (G5EF15 whole entry): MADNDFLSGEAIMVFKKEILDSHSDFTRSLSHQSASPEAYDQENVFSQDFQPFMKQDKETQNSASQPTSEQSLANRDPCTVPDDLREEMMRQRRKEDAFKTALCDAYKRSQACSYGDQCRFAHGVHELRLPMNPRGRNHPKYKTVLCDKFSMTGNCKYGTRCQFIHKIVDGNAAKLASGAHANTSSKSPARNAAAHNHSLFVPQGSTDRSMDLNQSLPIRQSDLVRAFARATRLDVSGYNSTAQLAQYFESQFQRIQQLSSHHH
The assay can be described thus: disruptors of C. elegans POS-1 RNA interaction – biochemical, fluorescence polarization, dose response (AID 1964).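 Note: purified POS-1 fused to maltose binding protein made in E. coli; potency of compounds blocking POS-1 binding to fluorescent RNA.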

The target of assay [21] is T4, Zinc finger protein mex-5 (Caenorhabditis elegans, UniProt Q9XUB2).
T4 sequence (Q9XUB2 whole entry): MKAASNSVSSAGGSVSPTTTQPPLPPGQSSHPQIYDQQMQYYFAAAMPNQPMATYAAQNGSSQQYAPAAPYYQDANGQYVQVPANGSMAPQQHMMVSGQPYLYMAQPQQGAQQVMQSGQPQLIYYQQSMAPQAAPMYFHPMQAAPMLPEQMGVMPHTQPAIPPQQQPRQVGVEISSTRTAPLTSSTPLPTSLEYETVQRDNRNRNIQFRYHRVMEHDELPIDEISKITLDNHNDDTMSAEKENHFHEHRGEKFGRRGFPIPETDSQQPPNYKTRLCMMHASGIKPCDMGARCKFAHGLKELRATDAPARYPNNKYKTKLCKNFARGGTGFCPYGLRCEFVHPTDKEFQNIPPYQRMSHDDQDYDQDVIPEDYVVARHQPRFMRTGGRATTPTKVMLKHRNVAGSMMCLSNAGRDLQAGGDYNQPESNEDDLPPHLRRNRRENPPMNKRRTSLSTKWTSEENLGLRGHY
The assay can be described thus: potency of MEX-5 RNA-binding blockers – biochemical, C. elegans, fluorescence polarization, dose response (AID 1960).

Assay [22] concerns the target Fructose-bisphosphate aldolase (Mycobacterium tuberculosis, UniProt P9WQA3). Put plainly: Fluorescence-based biochemical high throughput dose response assay for inhibitors of the fructose-bisphosphate aldolase (FBA) of M. tuberculosis. In kind it is functional.
The nature of assay [23]: microbe, parasite or virus in culture. It is filed as functional. Conditions: Mycobacterium tuberculosis.
Assay [24] concerns the target T5, Methionyl-tRNA synthetase, putative (Trypanosoma brucei brucei, UniProt Q38C91). It is filed as functional, Trypanosoma brucei brucei strain 927/4 GUTat10.1.
In assay [25] the target is T5, Methionyl-tRNA synthetase, putative. In kind it is functional, Trypanosoma brucei brucei strain 927/4 GUTat10.1. The source holds these as a separate data set.
The nature of assay [26]: Counterscreen for inhibitors of Trypanosoma brucei methionyl tRNA synthetase (MetRS): Luminescence-based cell-based high throughput dose response assay to identify compounds that are cytotoxic to Jurkat human T lymphocyte cells. In kind it is functional.
Assay [27] in a line: activation of miR-122 Renilla sensor silencing – cell-based, Huh7 psiCHECK-miR122, Renilla luciferase, cherry-picked, dose response (AID 651956).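 Note: huh7 hepatoma cells stably carrying a psiCHECK-2 miR-122 sensor plasmid; renilla luciferase signal reporting endogenous miR-122 activity after 48 h compound exposure.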 In kind it is functional.
Assay [28] in a line: general mammalian cell viability loss – inhibitor set, cherry-pick, set 2, cytotoxicity control for miR-122 modulator project, dose response (AID 720697). It is filed as functional, cell-based.
Assay [29] deals with Long-chain-fatty-acid--AMP ligase FadD28 (Mycobacterium tuberculosis, UniProt P9WQ59). Put plainly: Fluorescence polarization aasay to screen for inhibitors that compete for the binding of FadD28 to a bisubstrate Measured in Biochemical System Using Plate Reader - 2147-01_Inhibitor_Dose_CherryPick_Activity. It is filed as functional, Mycobacterium tuberculosis H37Rv.
Long-chain-fatty-acid--AMP ligase FadD28, sequence (P9WQ59 whole entry): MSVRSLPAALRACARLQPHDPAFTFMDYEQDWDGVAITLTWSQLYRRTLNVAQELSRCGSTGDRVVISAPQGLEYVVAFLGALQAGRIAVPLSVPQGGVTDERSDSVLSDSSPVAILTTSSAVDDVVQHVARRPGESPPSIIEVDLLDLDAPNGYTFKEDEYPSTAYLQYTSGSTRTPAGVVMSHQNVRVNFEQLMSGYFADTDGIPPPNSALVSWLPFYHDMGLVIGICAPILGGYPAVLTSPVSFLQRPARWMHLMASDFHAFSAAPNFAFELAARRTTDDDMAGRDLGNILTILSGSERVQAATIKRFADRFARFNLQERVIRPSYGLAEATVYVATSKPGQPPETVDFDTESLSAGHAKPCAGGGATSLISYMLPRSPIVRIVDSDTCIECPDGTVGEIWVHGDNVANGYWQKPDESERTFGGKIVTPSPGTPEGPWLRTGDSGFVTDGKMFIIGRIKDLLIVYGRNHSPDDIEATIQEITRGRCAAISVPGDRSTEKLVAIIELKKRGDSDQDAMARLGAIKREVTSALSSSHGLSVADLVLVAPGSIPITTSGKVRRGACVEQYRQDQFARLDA
In the next assay the test system is HeLa. Put plainly: viability loss in HeLa cells – cell-based, ATP luminescence, cherry-pick samples, cytotoxicity control, dose response (AID 687004). In kind it is functional. Conditions: Homo sapiens.

Active and inactive are the calls of the source. Where only a bound is given, the exact number is not on record here.

T5 sequence (Q38C91 whole entry): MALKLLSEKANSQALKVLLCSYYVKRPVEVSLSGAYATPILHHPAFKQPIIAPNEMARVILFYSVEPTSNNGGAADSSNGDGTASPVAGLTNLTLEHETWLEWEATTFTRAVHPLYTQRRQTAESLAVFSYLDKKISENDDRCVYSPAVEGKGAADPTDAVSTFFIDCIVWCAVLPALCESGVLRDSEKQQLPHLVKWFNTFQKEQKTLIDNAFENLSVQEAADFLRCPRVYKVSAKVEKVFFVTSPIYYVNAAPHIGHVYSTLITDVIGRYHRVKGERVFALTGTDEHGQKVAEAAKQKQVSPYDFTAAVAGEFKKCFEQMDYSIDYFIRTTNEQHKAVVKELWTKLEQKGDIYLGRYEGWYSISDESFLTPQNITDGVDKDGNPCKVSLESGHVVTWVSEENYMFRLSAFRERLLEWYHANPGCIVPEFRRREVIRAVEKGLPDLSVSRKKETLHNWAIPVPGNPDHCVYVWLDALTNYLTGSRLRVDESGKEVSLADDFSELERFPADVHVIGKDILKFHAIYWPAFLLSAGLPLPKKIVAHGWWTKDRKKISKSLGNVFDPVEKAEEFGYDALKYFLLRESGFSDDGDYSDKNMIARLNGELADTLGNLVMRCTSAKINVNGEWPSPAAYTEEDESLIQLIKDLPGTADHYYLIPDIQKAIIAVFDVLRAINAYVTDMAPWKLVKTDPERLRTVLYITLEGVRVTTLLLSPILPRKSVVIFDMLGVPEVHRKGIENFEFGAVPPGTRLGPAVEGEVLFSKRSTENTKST
Latent membrane protein 1, sequence (P03230 whole entry): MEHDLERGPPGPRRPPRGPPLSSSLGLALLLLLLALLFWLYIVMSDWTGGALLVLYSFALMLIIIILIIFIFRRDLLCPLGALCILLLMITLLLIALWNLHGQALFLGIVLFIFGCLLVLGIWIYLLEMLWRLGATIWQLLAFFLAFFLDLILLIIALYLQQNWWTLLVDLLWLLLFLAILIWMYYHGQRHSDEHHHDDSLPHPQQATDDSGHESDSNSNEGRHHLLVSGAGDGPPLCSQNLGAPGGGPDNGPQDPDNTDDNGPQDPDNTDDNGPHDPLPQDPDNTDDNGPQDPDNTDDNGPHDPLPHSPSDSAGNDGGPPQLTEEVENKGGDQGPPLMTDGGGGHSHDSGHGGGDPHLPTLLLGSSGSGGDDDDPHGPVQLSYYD
Fructose-bisphosphate aldolase, sequence (P9WQA3 whole entry): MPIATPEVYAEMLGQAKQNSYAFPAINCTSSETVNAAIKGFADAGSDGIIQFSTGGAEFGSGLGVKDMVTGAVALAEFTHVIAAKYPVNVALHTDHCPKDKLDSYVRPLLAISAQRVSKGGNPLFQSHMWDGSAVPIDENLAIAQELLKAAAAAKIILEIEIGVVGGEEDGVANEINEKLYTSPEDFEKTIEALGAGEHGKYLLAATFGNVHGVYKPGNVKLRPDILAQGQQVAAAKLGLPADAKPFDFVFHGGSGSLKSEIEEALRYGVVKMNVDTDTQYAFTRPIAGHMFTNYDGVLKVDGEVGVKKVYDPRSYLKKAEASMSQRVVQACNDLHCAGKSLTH

As for `COc1ccc(Nc2cc(C)c3c(O)cccc3n2)cc1`, the EC50 in assay [1] is 1.94 µM (active); in [2] it was > 60 µM (inconclusive); in the assay “cells [5]” it was > 29.9 µM (inactive). For the same compound, the figures for the IC50 (in the assay “cells [3]”; in assay [6]) were > 29.9 µM (inactive) and 56.3 µM (inactive), respectively. Further, in assay [4], the CC50 is 22.6 µM (active).
For `COc1ccc(-c2cc3nc4n(c(=O)c3s2)CCC4)cc1`, the EC50 was 0.706 µM (active) in assay [7] and 2.48 µM (active) in the assay with Streptococcus. The AC50 in [8] is 36.4 µM (active); in assay [10], > 52 µM (inactive); in the assay on HEK293, 1.48 µM (active); in assay [11], 2.65 µM (active); in assay [12] it was > 52 µM (inactive); in [14], 28 µM (active). Also, the AC50 in [15] was 2.53 µM (active). Further, the figures for the IC50 (in “cells [9]”; in assay [13]) were > 67.5 µM (inactive) and > 0.278 µM (active), respectively.
As to `CCCN1C(=O)/C(=C\C=C2\N(CC)c3ccccc3C2(C)C)SC1=S`, in [16], the AC50 was > 52 µM (inactive). In addition, the IC50 in [17] was 0.824 µM (active).
On to `Cc1cccc(-c2c3c(=O)n(C)c(=O)n(C)c3c3cccnn23)c1`, for which the IC50 is 11.3 µM (active) in [18] and 27 µM (inactive) in [19]. Further, the EC50 in [20] is 83.8 µM (active); in assay [21], 87.6 µM (active).
`C(=C\c1nccc2c1[nH]c1ccccc12)/c1ccccc1`: the IC50 in [22] is > 0.37 µM (active). Further, the CC50 in assay [23] is 25.4 µM (active).
With `COC(=O)CN1C(=S)N(c2ccc(Cl)cc2)C(=O)C1CC(=O)Nc1ccc(Cl)cc1` (configuration not stated), the IC50 was 19.7 µM (inactive) in assay [24], 13.7 µM (inactive) in [25] and 83.3 µM (inactive) in assay [26].
With `C[C@@H]1CN([C@@H](C)CO)S(=O)(=O)c2ccc(C#Cc3ccncc3)cc2O[C@@H]1CN(C)C(=O)Nc1ccc2c(c1)OCO2`, the figures for the AC50 in assay [27] and in [28] were 6.9 µM (active) and 10.7 µM (active), respectively.
Take `O=C(N/N=C/c1c[nH]c2ccccc12)c1cc(Br)ccc1O`: the AC50 in assay [29] is 7.18 µM (active).
`COC(=O)C1=C(C)N(Cc2ccc(F)cc2)C(=S)NC1c1ccc(Cl)cc1` (configuration not stated): in the assay on HeLa, the AC50 is > 52 µM (inactive).

The values above are taken from ChEMBL document CHEMBL1201862, “PubChem BioAssay data set” (2004).
